Measurements published in US10722480B2, “Agent for controlling cells constituting cancer microenvironment or inflammatory microenvironment” (The University of Tokyo, priority 2015, dated 2020).
Where two headings read alike, the source gives them in different places.

Tests used:
B16F10 melanoma cells [1] = assay: Lung metastasis model (B16F10); type: in vivo, mouse; details: B16F10 via tail vein, Day 9 post tumor administration
Method: To provide a lung metastasis model, 1×10^6 B16F10 melanoma cells were suspended in 200 μL of PBS, and administered from the tail vein of each of wild-type C57BL/6 mice. Administration of the inhibitor was carried out one day before, 30 minutes before, and one day after the tumor administration. To provide a control, DMSO and a pyrimidine fluoride anticancer drug 5-FU were administered. The mice were euthanized on Day 9 post tumor administration, and PBS was perfused from the left ventricle, followed by isolation of lungs. Visible lung metastatic lesions in the left lobe were counted.

LLC tumor cells = assay: LDH cytotoxicity assay, LLC tumor cells; type: cell-based
Method: (§1) The cytotoxicity of inhibitors was tested by using LDH Cytotoxicity Detection Kit (TaKaRa) according to the manufacturer's instructions. Briefly, tumor cells were cultured in the presence or absence of an agent (disulfiram or 5FU) for 72 hours, and the culture supernatant was then collected and tested for the concentration of lactate dehydrogenase released from damaged cells. For measurement of cell proliferation, cells were incubated in a plate well together with an inhibitor for 48 hours. During the last 30 minutes, WST-1 (Dojindo Laboratories) was added to the culture liquid, and the absorbance of each well was measured at 450 nm versus 650 nm reference using EnVision (PerkinElmer) to detect the formazan level.

B16F10 melanoma cells [2] = assay: LDH cytotoxicity assay, B16F10 melanoma cells; type: cell-based
Method: as §1

B16F10 melanoma cells [3] = assay: WST-1 proliferation assay, B16F10 melanoma cells; type: cell-based; details: WST-1, 48 hours
Method: as §1

FROUNT-CCR2 interaction = molecular target: T1, FROUNT-CCR2 interaction (Homo sapiens, UniProt Q9BW27); assay: HTRF binding inhibition assay, FROUNT-CCR2 interaction
T1 construct: made in house
T1 sequence (Q9BW27 500-656): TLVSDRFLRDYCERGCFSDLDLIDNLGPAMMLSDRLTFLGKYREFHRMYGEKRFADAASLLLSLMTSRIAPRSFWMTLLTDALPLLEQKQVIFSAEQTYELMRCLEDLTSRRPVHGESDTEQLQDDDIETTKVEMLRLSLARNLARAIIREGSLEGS
Method: For the screening, a compound library containing 131,200 kinds of compounds dissolved in DMSO at a concentration of 10 mM or 2 mM (obtained from Open Innovation Center for Drug Discovery, the University of Tokyo) was used. The HTRF assay was carried out using a 384-well low-dose white microplate (Corning Coaster; catalog number 3676). In each well, 4 μL of a solution of 20 nM GST fusion FROUNT protein (a recombinant polypeptide prepared by fusing GST to aa 500-656 of SEQ ID NO:2), and DMSO or test compounds were mixed with a binding buffer (10 mM HEPES [pH 7.4], 0.2 M potassium fluoride, 10 mM NaCl, 0.1% Tween 20, and 0.5% bovine serum albumin [BSA]), and the plate was incubated at room temperature for 30 minutes. […]. After incubation at room temperature for 20 hours, the HTRF signal was measured at emission wavelengths of 620 nm and 665 nm using a multilabel counter EnVision (PerkinElmer).
(§2) By the same HTRF assay as described above, the abilities of disulfiram to inhibit the FROUNT-CCR2 interaction or the FROUNT-CCR5 interaction were investigated. As the CCR5 pro-C peptide, the 16 residues […] (SEQ ID NO:4) in the C-terminal region of CCR5 was used. As a control, the p53-MDM2 interaction (which is inhibited by an MDM-2-specific inhibitor Nutlin), which is also a helix peptide-protein interaction like the interaction between FROUNT and CCR2 or CCR5 but is not related thereto, was used.

p53-MDM2 interaction = p53-MDM2 interaction (Homo sapiens, UniProt Q00987); assay: HTRF binding inhibition assay, p53-MDM2 control interaction; details: p53-MDM2 control interaction
Excerpt: as §2

[4] = molecular target: T2, aldehyde dehydrogenase (ALDH) (Rattus norvegicus, UniProt P11884); details: Excerpt from Alcohol Clin Exp Res 1996.20.595-; read-out: ALDH inhibition; cited from earlier work
T2 sequence (P11884 20-519): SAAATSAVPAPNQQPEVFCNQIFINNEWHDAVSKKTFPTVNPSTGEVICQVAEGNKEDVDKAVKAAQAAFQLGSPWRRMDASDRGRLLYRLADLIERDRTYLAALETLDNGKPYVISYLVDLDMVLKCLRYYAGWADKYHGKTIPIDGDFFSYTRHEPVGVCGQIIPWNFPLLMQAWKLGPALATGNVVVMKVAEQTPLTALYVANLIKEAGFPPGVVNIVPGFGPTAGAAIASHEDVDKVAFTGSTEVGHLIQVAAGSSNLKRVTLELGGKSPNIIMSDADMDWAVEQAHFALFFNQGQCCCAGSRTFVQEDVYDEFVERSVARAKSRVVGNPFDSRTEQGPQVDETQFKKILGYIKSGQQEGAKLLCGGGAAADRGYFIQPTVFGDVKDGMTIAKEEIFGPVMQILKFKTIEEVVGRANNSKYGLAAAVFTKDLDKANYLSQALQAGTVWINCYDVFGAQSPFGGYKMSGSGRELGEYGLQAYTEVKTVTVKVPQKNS

[5] = HTRF, read-out: FROUNT inhibition (IC50 against FROUNT-CCR2)

Sequence of p53-MDM2 interaction (Q00987 whole entry): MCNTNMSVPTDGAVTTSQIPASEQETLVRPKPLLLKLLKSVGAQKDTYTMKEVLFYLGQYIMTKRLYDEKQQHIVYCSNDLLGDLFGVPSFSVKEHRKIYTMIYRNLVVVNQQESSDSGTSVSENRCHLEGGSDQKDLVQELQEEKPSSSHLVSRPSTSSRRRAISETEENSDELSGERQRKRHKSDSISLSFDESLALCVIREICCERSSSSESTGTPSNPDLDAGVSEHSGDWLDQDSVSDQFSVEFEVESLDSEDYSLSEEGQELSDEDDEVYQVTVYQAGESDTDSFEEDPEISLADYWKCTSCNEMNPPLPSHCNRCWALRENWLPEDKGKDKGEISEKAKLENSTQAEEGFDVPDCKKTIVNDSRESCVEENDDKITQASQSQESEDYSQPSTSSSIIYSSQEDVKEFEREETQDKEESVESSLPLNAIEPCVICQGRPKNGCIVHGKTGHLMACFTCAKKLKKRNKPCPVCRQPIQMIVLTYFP

## O=c1[nH]cc(F)c(=O)[nH]1 [5FU]
B16F10 melanoma cells [1]
  formation of lung metastatic lesions: did not reduce
LLC tumor cells
  cytotoxic activity on LLC tumor cells: completely killed
B16F10 melanoma cells [2]
  cytotoxic activity on B16F10 melanoma cells: showed cytotoxic activity
B16F10 melanoma cells [3]
  growth-inhibiting action on B16F10 melanoma cells: growth-inhibiting action

## CCN(CC)C(=S)S [DDC, sodium diethyldithiocarbamate]
FROUNT-CCR2 interaction
  IC50: 137 nM

## CCN(CC)C(=O)S(C)(=O)=O [Me-DTC sulfone]
FROUNT-CCR2 interaction; [5]
  IC50: > 1000 nM
p53-MDM2 interaction
  IC50: > 1000 nM
[4]
  IC50: 530 nM

## CCN(CC)C(=O)[S+](C)[O-] (stereo not drawn) [Me-DTC sulfoxide]
FROUNT-CCR2 interaction; [5]
  IC50: > 1000 nM
p53-MDM2 interaction
  IC50: > 1000 nM
[4]
  IC50: 930 nM

## CCN(CC)C(=S)[S-].CCN(CC)C(=S)[S-].CCN(CC)C(=S)[S-].[Fe+3] [iron (III) complex of DDC]
FROUNT-CCR2 interaction; [5]
  IC50: 9.2 nM
